From patent US20240158446A1, “CYCLIC COMPOUND HAVING SELECTIVE INHIBITORY ACTION ON KRAS OVER HRAS AND NRAS” (CHUGAI SEIYAKU KABUSHIKI KAISHA, priority 2021, published 2024)

How the values were obtained:
[1] = target: GDP-bound KRAS wild-type protein (Homo sapiens, UniProt P01116); experiment: Binding to KRAS by surface plasmon resonance (SPR), Single Cycle Kinetics; details: SPR, Single Cycle Kinetics, GDP-bound KRAS wild-type protein; read-out: KRAS KD
[2] = target: GDP-bound NRAS wild-type protein (Homo sapiens, UniProt P01111); experiment: Binding to NRAS by surface plasmon resonance (SPR), Single Cycle Kinetics; details: SPR, GDP-bound NRAS wild-type protein vs GDP-bound KRAS wild-type protein
GDP-bound NRAS wild-type protein, sequence (P01111 whole entry): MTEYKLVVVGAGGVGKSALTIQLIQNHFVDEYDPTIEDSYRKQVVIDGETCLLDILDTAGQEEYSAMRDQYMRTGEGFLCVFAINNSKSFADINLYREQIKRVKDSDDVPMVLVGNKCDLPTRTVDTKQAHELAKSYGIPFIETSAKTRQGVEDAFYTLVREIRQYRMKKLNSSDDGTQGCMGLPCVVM

[3] = target: GDP-bound HRAS wild-type protein (Homo sapiens, UniProt P01112); experiment: Binding to HRAS by surface plasmon resonance (SPR), Single Cycle Kinetics; details: SPR, GDP-bound HRAS wild-type protein vs GDP-bound KRAS wild-type protein
GDP-bound HRAS wild-type protein, sequence (P01112 whole entry): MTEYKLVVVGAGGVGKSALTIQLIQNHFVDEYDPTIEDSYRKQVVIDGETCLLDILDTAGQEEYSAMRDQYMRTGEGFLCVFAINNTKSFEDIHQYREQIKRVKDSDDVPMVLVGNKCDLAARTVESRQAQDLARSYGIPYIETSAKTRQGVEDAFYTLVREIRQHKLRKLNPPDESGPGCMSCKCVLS

[4] = system: human lung cancer strain NCI-H441;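 note: cell proliferation inhibition after four days measured by CellTiter-Glo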

GDP-bound KRAS wild-type protein, sequence (P01116 whole entry): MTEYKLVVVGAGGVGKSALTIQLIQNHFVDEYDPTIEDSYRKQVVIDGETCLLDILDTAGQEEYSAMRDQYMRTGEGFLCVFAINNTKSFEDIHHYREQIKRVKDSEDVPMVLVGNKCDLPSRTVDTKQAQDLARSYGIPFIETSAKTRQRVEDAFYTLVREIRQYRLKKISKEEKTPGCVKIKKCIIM

Structure (SMILES) | Kd [1] | IC50 [4] | NRAS/KRAS (ratio of KD value for NRAS to KD value for KRAS) [2] | HRAS/KRAS (ratio of KD value for HRAS to KD value for KRAS) [3]
CCO[C@@H]1C[C@H]2C(=O)NC3(CCC3)C(=O)N(C)[C@@H](C3CCCC3)C(=O)N(C)[C@H](C(=O)N(C)C)CC(=O)N(C)[C@@H](Cc3cccc(C#N)c3)C(=O)N[C@@H]([C@@H](C)CC)C(=O)N(C)CC(=O)N(C)[C@H]3CCCCCN(C3=O)[C@@H](Cc3ccc(F)cc3)C(=O)N(C)CC(=O)N[C@@H](CCc3cc(F)c(C(F)(F)F)c(F)c3)C(=O)N2C1 [PP1156] | 0.063 nM | 33.7 nM | B (a compound having 3 or more and less than 10 is denoted as B) | B (a compound having 3 or more and less than 10 is denoted as B)
CCO[C@@H]1C[C@H]2C(=O)NC3(CCC3)C(=O)N(C)[C@@H](C3CCCC3)C(=O)N(C)[C@H](C(=O)N(C)C)CC(=O)N(C)[C@@H](Cc3ccc(C#N)cc3)C(=O)N[C@@H]([C@@H](C)CC)C(=O)N(C)CC(=O)N(C)[C@H]3CCCCCN(C3=O)[C@@H](Cc3ccc(F)cc3)C(=O)N(C)CC(=O)N[C@@H](CCc3cc(F)c(C(F)(F)F)c(F)c3)C(=O)N2C1 [PP1157] | 0.061 nM | 30.3 nM | B (a compound having 3 or more and less than 10 is denoted as B) | B (a compound having 3 or more and less than 10 is denoted as B)
CCCO[C@@H]1C[C@H]2C(=O)NC3(CCC3)C(=O)N(C)[C@@H](C3CCCC3)C(=O)N(C)[C@H](C(=O)N3CCOCC3)CC(=O)N(C)[C@@H](CC(C)C)C(=O)N[C@@H]([C@@H](C)CC)C(=O)N(C)CC(=O)N(C)[C@H]3CCCCN(C3=O)[C@@H](Cc3ccc(C(F)(F)F)cc3)C(=O)N(C)CC(=O)N[C@@H](CCc3cc(F)c(C(F)(F)F)c(F)c3)C(=O)N2C1 [PP1159] | 0.036 nM | 13 nM | C (A compound having a KD ratio of 0.1 or more and less than 3 is denoted as C) | B (a compound having 3 or more and less than 10 is denoted as B)
CCO[C@@H]1C[C@H]2C(=O)NC3(CCC3)C(=O)N(C)[C@@H](C3CCCC3)C(=O)N(C)[C@H](C(=O)N3CCOCC3)CC(=O)N(C)[C@@H](Cc3ccsc3)C(=O)N[C@@H]([C@@H](C)CC)C(=O)N(C)CC(=O)N(C)[C@H]3CCCCCN(C3=O)[C@@H](Cc3ccc(C(F)(F)F)cc3)C(=O)N(C)CC(=O)N[C@@H](CCc3cc(F)c(C(F)(F)F)c(F)c3)C(=O)N2C1 [PP1164] | 0.52 nM | 95.9 nM | B (a compound having 3 or more and less than 10 is denoted as B) | B (a compound having 3 or more and less than 10 is denoted as B)
CCO[C@@H]1C[C@H]2C(=O)NC3(CCC3)C(=O)N(C)[C@@H](C3CCCC3)C(=O)N(C)[C@H](C(=O)N3CCOCC3)CC(=O)N(C)[C@@H](Cc3ccc(C#N)cc3)C(=O)N[C@@H]([C@@H](C)CC)C(=O)N(C)CC(=O)N(C)[C@H]3CCCCCN(C3=O)[C@@H](Cc3ccc(C(F)(F)F)cc3)C(=O)N(C)CC(=O)N[C@@H](CCc3cc(F)c(C(F)(F)F)c(F)c3)C(=O)N2C1 [PP1167] | 0.5 nM | 134 nM | B (a compound having 3 or more and less than 10 is denoted as B) | B (a compound having 3 or more and less than 10 is denoted as B)
CCO[C@@H]1C[C@H]2C(=O)NC3(CCC3)C(=O)N(C)[C@@H](C3CCCC3)C(=O)N(C)[C@H](C(=O)N(C)C)CC(=O)N(C)[C@@H](Cc3cccs3)C(=O)N[C@@H]([C@@H](C)CC)C(=O)N(C)CC(=O)N(C)[C@H]3CCCCCN(C3=O)[C@@H](Cc3ccc(C(F)(F)F)cc3)C(=O)N(C)CC(=O)N[C@@H](CCc3cc(F)c(C(F)(F)F)c(F)c3)C(=O)N2C1 [PP1169] | 0.32 nM | 74 nM | B (a compound having 3 or more and less than 10 is denoted as B) | B (a compound having 3 or more and less than 10 is denoted as B)
CCO[C@@H]1C[C@H]2C(=O)NC3(CCC3)C(=O)N(C)[C@@H](C3CCCC3)C(=O)N(C)[C@H](C(=O)N(C)C)CC(=O)N(C)[C@@H](Cc3ccccc3C#N)C(=O)N[C@@H]([C@@H](C)CC)C(=O)N(C)CC(=O)N(C)[C@H]3CCCCCN(C3=O)[C@@H](Cc3ccc(C(F)(F)F)cc3)C(=O)N(C)CC(=O)N[C@@H](CCc3cc(F)c(C(F)(F)F)c(F)c3)C(=O)N2C1 [PP1171] | 0.69 nM | 118 nM | B (a compound having 3 or more and less than 10 is denoted as B) | B (a compound having 3 or more and less than 10 is denoted as B)

The remaining molecules from weak to strong by Kd [1], led by results:

Kd [1] | IC50 [4] | Structure (SMILES) | NRAS/KRAS (ratio of KD value for NRAS to KD value for KRAS) [2] | HRAS/KRAS (ratio of KD value for HRAS to KD value for KRAS) [3]
1.8 nM | 338 nM | CCO[C@@H]1C[C@H]2C(=O)NC3(CCC3)C(=O)N(C)[C@@H](C3CCCC3)C(=O)N(C)[C@H](C(=O)N3CCOCC3)CC(=O)N(C)[C@@H](Cc3ccc(Cl)c(Cl)c3)C(=O)N[C@@H]([C@@H](C)CC)C(=O)N(C)CC(=O)N(C)[C@H]3CCCCCN(C3=O)[C@@H](Cc3ccc(C(F)(F)F)cc3)C(=O)N(C)CC(=O)N[C@@H](CCc3cc(F)c(C(F)(F)F)c(F)c3)C(=O)N2C1 [PP1168] | A (a compound having 10 or more and less than 20 is denoted as A) | A (a compound having 10 or more and less than 20 is denoted as A)
1.5 nM | 295 nM | CCO[C@@H]1C[C@H]2C(=O)NC3(CCC3)C(=O)N(C)[C@@H](C3CCCC3)C(=O)N(C)[C@H](C(=O)N3CCOCC3)CC(=O)N(C)[C@@H](Cc3ccccc3C#N)C(=O)N[C@@H]([C@@H](C)CC)C(=O)N(C)CC(=O)N(C)[C@H]3CCCCCN(C3=O)[C@@H](Cc3ccc(C(F)(F)F)cc3)C(=O)N(C)CC(=O)N[C@@H](CCc3cc(F)c(C(F)(F)F)c(F)c3)C(=O)N2C1 [PP1165] | A (a compound having 10 or more and less than 20 is denoted as A) | B (a compound having 3 or more and less than 10 is denoted as B)
1 nM | 85.2 nM | CCO[C@@H]1C[C@H]2C(=O)NC3(CCC3)C(=O)N(C)[C@@H](C3CCCC3)C(=O)N(C)[C@H](C(=O)N(C)C)CC(=O)N(C)[C@@H](Cc3ccc(Cl)c(Cl)c3)C(=O)N[C@@H]([C@@H](C)CC)C(=O)N(C)CC(=O)N(C)[C@H]3CCCCCN(C3=O)[C@@H](Cc3ccc(C(F)(F)F)cc3)C(=O)N(C)CC(=O)N[C@@H](CCc3cc(F)c(C(F)(F)F)c(F)c3)C(=O)N2C1 [PP1174] | B (a compound having 3 or more and less than 10 is denoted as B) | B (a compound having 3 or more and less than 10 is denoted as B)
0.59 nM | 93.3 nM | CCO[C@@H]1C[C@H]2C(=O)NC3(CCC3)C(=O)N(C)[C@@H](C3CCCC3)C(=O)N(C)[C@H](C(=O)N3CCOCC3)CC(=O)N(C)[C@@H](Cc3cccs3)C(=O)N[C@@H]([C@@H](C)CC)C(=O)N(C)CC(=O)N(C)[C@H]3CCCCCN(C3=O)[C@@H](Cc3ccc(C(F)(F)F)cc3)C(=O)N(C)CC(=O)N[C@@H](CCc3cc(F)c(C(F)(F)F)c(F)c3)C(=O)N2C1 [PP1163] | B (a compound having 3 or more and less than 10 is denoted as B) | B (a compound having 3 or more and less than 10 is denoted as B)
0.18 nM | 57.5 nM | CCO[C@@H]1C[C@H]2C(=O)NC3(CCC3)C(=O)N(C)[C@@H](C3CCCC3)C(=O)N(C)[C@H](C(=O)N(C)C)CC(=O)N(C)[C@@H](Cc3ccc(Cl)c(Cl)c3)C(=O)N[C@@H]([C@@H](C)CC)C(=O)N(C)CC(=O)N(C)[C@H]3CCCCCN(C3=O)[C@@H](Cc3ccc(F)cc3)C(=O)N(C)CC(=O)N[C@@H](CCc3cc(F)c(C(F)(F)F)c(F)c3)C(=O)N2C1 [PP1158] | B (a compound having 3 or more and less than 10 is denoted as B) | B (a compound having 3 or more and less than 10 is denoted as B)
0.18 nM | 70.8 nM | CCO[C@@H]1C[C@H]2C(=O)NC3(CCC3)C(=O)N(C)[C@@H](C3CCCC3)C(=O)N(C)[C@H](C(=O)N(C)C)CC(=O)N(C)[C@@H](Cc3ccc(C#N)cc3)C(=O)N[C@@H]([C@@H](C)CC)C(=O)N(C)CC(=O)N(C)[C@H]3CCCCCN(C3=O)[C@@H](Cc3ccc(C(F)(F)F)cc3)C(=O)N(C)CC(=O)N[C@@H](CCc3cc(F)c(C(F)(F)F)c(F)c3)C(=O)N2C1 [PP1173] | B (a compound having 3 or more and less than 10 is denoted as B) | B (a compound having 3 or more and less than 10 is denoted as B)
0.17 nM | 48.3 nM | CCO[C@@H]1C[C@H]2C(=O)NC3(CCC3)C(=O)N(C)[C@@H](C3CCCC3)C(=O)N(C)[C@H](C(=O)N(C)C)CC(=O)N(C)[C@@H](Cc3cccc(C#N)c3)C(=O)N[C@@H]([C@@H](C)CC)C(=O)N(C)CC(=O)N(C)[C@H]3CCCCCN(C3=O)[C@@H](Cc3ccc(C(F)(F)F)cc3)C(=O)N(C)CC(=O)N[C@@H](CCc3cc(F)c(C(F)(F)F)c(F)c3)C(=O)N2C1 [PP1172] | B (a compound having 3 or more and less than 10 is denoted as B) | B (a compound having 3 or more and less than 10 is denoted as B)
0.032 nM | 18.4 nM | CC[C@H](C)[C@@H]1NC(=O)[C@H](CC(C)C)N(C)C(=O)C[C@@H](C(=O)N2CCOCC2)N(C)C(=O)[C@H](C2CCCC2)N(C)C(=O)C2(CCC2)NC(=O)[C@@H]2C[C@@H](OCC(C)C)CN2C(=O)[C@H](CCc2cc(F)c(C(F)(F)F)c(F)c2)NC(=O)CN(C)C(=O)[C@H](Cc2ccc(C(F)(F)F)cc2)N2CCCC[C@@H](C2=O)N(C)C(=O)CN(C)C1=O [PP1160] | B (a compound having 3 or more and less than 10 is denoted as B) | B (a compound having 3 or more and less than 10 is denoted as B)
